# Laboratory results from patent publication US20060116318A1, “Preptin methods of use” (priority 2002, published 2006).
# “Also recorded” adds a separate entry of the source. Where two headings read alike, the source gives them in different places.
# Columns and labels:
# [1] = system: primary fetal rat osteoblasts; assay: Proliferation (cell number, [3H]-thymidine incorporation) of fetal rat osteoblast-like cells; format: cell-based
# Protocol: Osteoblast-Like Cell Culture. Osteoblasts were isolated from 20 day fetal rat calvariae as previously described (Cornish et al. (1999) American Journal of Physiology Endocrinology & Metabolism 277: E779-E783). Briefly, calvariae were excised and the frontal and parietal bones, free of suture and periosteal tissue, were collected. The calvariae were sequentially digested using collagenase and the cells from digests 3 and 4 were collected, pooled and washed. Cells were grown to confluence and then subcultured into 24 well plates. Cells were growth arrested in minimum essential medium (MEM)/0.1% bovine serum albumin for 24 h. Fresh media and experimental compounds were added for a further 24 h. Cells were pulsed with tritiated-thymidine two hours before the end of the experimental incubation. The effect of preptin on proliferation of fetal rat osteoblast-like cells was first assessed by the measurement of cell numbers. The effect of preptin on DNA synthesis in osteoblasts was then assessed by the measurement of [^3H]-thymidine incorporation into isolated fetal rat osteoblast-like cells. There were 6 wells in each group and each experiment was repeated 3 or 4 times.
# [2] = system: murine bone marrow cultures; assay: Osteoclastogenesis assay in murine bone marrow cultures (TRAP-positive multinucleated cells); format: cell-based, mouse; details: various concentrations; 7 days; with 1α,25-dihydroxyvitamin D3; FIG. 4
# Protocol: The effects of preptin on the development of osteoclasts was also examined. To assess osteoclast development, bone marrow is obtained from the long bones of normal mice, aged 4-6 weeks and cultured. Non-adherent cells are removed and the cultures are grown in the presence of 1α,25-dihydroxyvitamin D3 throughout the experiment. The cultures were maintained for 7 days and the number of tartrate-resistant acid phosphatase-positive multinucleated cells was assessed. An osteoclastogenesis assay was performed with murine bone marrow cultures in the presence of various concentrations of rat preptin. The number of tartrate-resistant acid phosphatase (TRAP)-positive multinucleated cells was assessed (FIG. 4).
# [3] = system: sexually mature male mice; assay: Local subcutaneous injection over the hemicalvaria, histomorphometry; format: in vivo; details: for Bone Area, Mean ± Std Error: twice daily s.c. over right hemicalvaria; for Bone Area, Mean ± Std Error / % Mineralizing Surface/Total Bone Surface, Mean ± Std Error: 5 days; for % Mineralizing Surface/Total Bone Surface, Mean ± Std Error: twice daily s.c.
# Protocol: Three groups of sexually mature male mice were given twice daily subcutaneous injections over the right hemicalvaria for 5 consecutive days. Two groups received one of 2 doses of preptin (0.825 μg or 8.25 μg per injection), and a further […] received vehicle. The animals were sacrificed 1 week following the last injection. Fluorochrome labels were injected subcutaneously at the base of the tail on days 1 (calcein), 5 (alizarin red) and 14 (calcein) to measure dynamic histomorphometric indices (such as, extent of mineralizing surface). Calvariae were excised, fixed in 10% neutral-buffered formalin, dehydrated and embedded in methylmethacrylate resin. Sections were cut, mounted on gelatin-coated slides, and histomorphometric indices measured using image analysis.
# primary rat osteoblasts = assay: TUNEL assay of apoptosis in serum-deprived primary rat osteoblasts; format: cell-based; details: 10^−8 M; apoptosis induced by serum deprivation; 18 h; FIG. 6
# Protocol: Immunoblotting (Cell Signalling Methods). Primary rat osteoblasts prepared as described above were seeded in 6-well tissue culture plates at an initial density of 5×10^4 cells/mL in MEM 5% FCS, and grown to 80-90% confluence. After serum starvation overnight, cells were treated at room temperature with test substances in MEM 0.1% BSA. In experiments designed to determine the effect of inhibitors of signal transduction on preptin-induced p42/44 MAP kinase phosphorylation, the cells were pre-treated with the inhibitor for 30 min prior to addition of test substances. The exception was pertussis toxin, which was added 18 h prior to test substances. […] The lysates were briefly vortexed, clarified by centrifugation at 13,000 rpm at 4° C., then stored at −70° C. until analyzed. Protein content of the cell lysates was measured using the DC protein assay (BioRad, Hercules, Calif.). […] Incubation with the HRP-conjugated secondary antibody was for 1 h at room temperature, and the membranes were analyzed by ECL. […] Apoptosis in cultures of primary rat osteoblasts was assessed using the TUNEL method (DeadEnd™, Promega, Madison, Wis.) according to the manufacturer's instructions. […] After counterstaining with hematoxylin, the number of apoptotic nuclei per microscopic field was counted and expressed as a proportion of that observed in the cells exposed to serum starvation throughout the entire treatment period. […]
# [4] = system: isolated, perfused rat pancreas; details: infusion into isolated, Buchanan et al. 2001; cited from earlier work
# [5] = system: murine neonatal calvarial organ culture; assay: Thymidine incorporation in murine neonatal calvarial organ culture; format: cell-based, mouse; details: FIG. 3 (rat preptin, two concentrations)
# [6] = system: murine neonatal calavarial organ culture system; assay: Bone resorption in murine neonatal calvarial organ culture; format: cell-based, mouse; details: data not shown
# [7] = system: long-term osteoblast cultures; assay: Osteoblast differentiation, mineralized bone nodules in long-term osteoblast cultures; format: cell-based; details: 10^−8M
# [8] = primary osteoblasts pre-treated with inhibitor, FIG. 5A, 5B
# [9] = high dose, 16.5 micrograms daily for five days, local s.c. injection
molecule,measurement,setting,value
N#CC(=C(/N)Sc1ccccc1N)/C(C#N)=C(\N)Sc1ccccc1N [U-0126],effect of inhibitor pre-treatment on the proliferative effects of preptin,[1],blocked
pertussis toxin,effect of inhibitor pre-treatment on the proliferative effects of preptin,[1]; [8],blocked
COc1cccc(-c2cc(=O)c3ccccc3o2)c1N [PD-98059],effect of inhibitor pre-treatment on the proliferative effects of preptin,[1]; [8],blocked
DVSTSQAVLPDDFPRYPVGKFFKFDTWRQSAGRL (Rattus) [rat preptin],osteoclast development (number of TRAP-positive multinucleated cells),[2],did not affect osteoclast development
preptin: 34-amino acid peptide corresponding to Asp69-Leu102 of proinsulin-like growth factor II; species form not always stated,"Bone Area, Mean ± Std Error","[3]; high dose (8.25 μg per injection), P = 0.013 vs control 1.028 ± 0.023",*1.084 ± 0.017
same,"% Mineralizing Surface/Total Bone Surface, Mean ± Std Error","[3]; high dose (8.25 μg per injection), P = 0.046 vs control 1.048 ± 0.013",*1.119 ± 0.032%
same,bone area compared to control (in words),[3]; [9],significant increase; also recorded: increased
same,mineralizing surface compared to control (in words),[3]; [9],significant increase; also recorded: increased
same,"Bone Area, Mean ± Std Error","[3]; low dose (0.825 μg per injection), control 1.028 ± 0.023",1.083 ± 0.027
same,"% Mineralizing Surface/Total Bone Surface, Mean ± Std Error","[3]; low dose (0.825 μg per injection), control 1.048 ± 0.013",1.065 ± 0.033%
same,"apoptosis, treatment/control ratio",primary rat osteoblasts,0.78±0.08
same,second phase of insulin secretion,[4],significant increase
same,thymidine incorporation,[5],stimulated
same,concentrations stimulating proliferation (cell number and DNA synthesis),"[1]; dose-dependent, primary fetal rat osteoblasts and osteoblast-like cell lines, 24 h, FIGS. 1 and 2 (rat and human preptin)",> 10^−11 M
same,bone resorption,[6],did not affect bone resorption
same,"osteoblast differentiation, number of mineralized bone nodules",[7],significantly increasing the number of mineralized bone nodules
